Non-standard residues stand in square brackets, D forms with d. Residues, ends and D or L forms follow the SMILES beside them.
Experiments:
CBP/P300 = test: Streptavidin affinity purification of CBP/P300 from MV-411 cell extracts with BIO-MYBMIM, with peptide competition; assay type: binding, human; details: 20-fold molar excess free peptide, MV-411 extracts, western blot
Experimental: Cells were lysed in RIPA buffer (Thermo Fisher) supplemented with a protease inhibitor mix comprised of AEBSF (0.5 mM concentration, Santa Cruz, SC-202041B), Bestatin (0.01 mM, Fisher/Alfa Aesar, J61106-MD), Leupeptin (0.1 mM, Santa Cruz, SC-295358B), and Pepstatin (0.001 mM, Santa Cruz, SC-45036A). Lysates were mechanically disrupted using Covaris S220 adaptive focused sonicator, according to the manufacturer’s instructions (Covaris, Woburn, CA). Lysates were cleared by centrifugation for 15 min at 18,000 × g and clarified lysates were quantified using the bicinchoninic acid assay (Pierce). Clarified lysates (20 μg of protein) were resolved using sodium dodecyl sulfate-polyacrylamide gel electrophoresis, and electroeluted using the Immobilon FL PVDF membranes (Millipore, Billerica, MA, USA). Membranes were blocked using the Odyssey Blocking buffer (Li-Cor, Lincoln, Nebraska, USA). The following primary antibodies were used as indicated: anti-MYB (1:1000, 05-175, Millipore), anti-CBP (1:1000, PA1-847, Invitrogen), anti-BCL2 (1:1000, 200-401-222, Rockland), anti-β actin (1:1000, 8H10D10, Cell Signaling). […] Blotted membranes were visualized using secondary antibodies conjugated to IRDye 800CW or IRDye 680RD (Goat anti-rabbit, 1:15,000, and goat anti-mouse, 1:15,000) and the Odyssey CLx fluorescence scanner, according to manufacturer’s instructions (Li-Cor, Lincoln, Nebraska, USA). […]

MV-411 cells = test: MYB ChIP-seq; assay type: cell-based, human; details: 20 µM, 6 h, 3 biological replicates
Experimental: ChIP was performed as previously described. Briefly, cells were fixed in 1% formalin in phosphate-buffered saline (PBS) for 10 minutes at room temperature. Glycine (125 mM final concentration) and Tris-HCl pH 8 (100 mM final concentration) were added to the cells and cells were washed twice in ice-cold PBS and resuspended in sodium dodecyl sulfate (SDS) lysis buffer (1% SDS, 10 mM EDTA, 50 mM Tris–HCl, pH 8.1). Lysates were sonicated using the Covaris S220 adaptive focused sonicator to obtain 100–500 bp chromatin fragments (Covaris, Woburn, CA). Lysates containing sheared chromatin fragments were resuspended in 0.01% SDS, 1.1% Triton-X100, 1.2 mM EDTA, 16.7 mM Tris–HCl, pH 8.1,167 mM NaCl. Lysates and antibody-coupled beads were incubated over night at 4 °C. […] Libraries were sequenced on the Illumina HiSeq 2500 instruments, with 30 million 2 × 50 bp paired reads.
For ChIP-seq analysis, reads were quality and adapter trimmed using ‘trim_galore’ before aligning to human genome assembly hg19 with bwa mem using the default parameters. Aligned reads with the same start position and orientation were collapsed to a single read before subsequent analysis. Density profiles were created by extending each read to the average library fragment size and then computing density using the BEDTools suite. Enriched regions were discovered using MACS 2.0 and scored against matched input libraries. […]

In the case of `CC[C@@H](C)[C@@H](NC(=O)[C@@H](CCCCN)NC(=O)[C@@H](CCC(=O)O)NC(=O)[C@@H](CC(C)C)NC(=O)[C@@H](CCC(=O)O)NC(=O)[C@@H](CC(C)C)NC(=O)[C@@H](CC(C)C)NC(=O)[C@@H](CC(C)C)NC(=O)[C@@H](CCSC)NC(=O)[C@@H](CO)NC(=O)[C@H](NC(=O)[C@@H](CCC(=O)O)NC(=O)[C@@H](CC(N)=O)NC(=O)[C@@H](CCC(=O)O)NC(=O)[C@@H](CC(C)C)NC(=O)[C@@H](CCCCN)NC(C)=O)[C@H](C)O)C(=O)N[C@H](CCCNC(=N)N)C(=O)N[C@H](CCCCN)C(=O)NCC(=O)NCC(=O)N[C@H](CCCNC(=N)N)C(=O)N[C@H](CCCNC(=N)N)C(=O)N[C@H](CCCNC(=N)N)C(=O)N[C@H](CCC(N)=O)C(=O)N[C@H](CCCNC(=N)N)C(=O)N[C@H](CCCNC(=N)N)C(=O)N[C@H](CCCCN)C(=O)N[C@H](CCCCN)C(=O)N[C@H](CCCNC(=N)N)C(=O)NCC(=O)N[C@H](Cc1ccc(O)cc1)C(N)=O` [MYBMIM] (Ac-[dK][dL][dE][dN][dE][dT][dS][dM][dL][dL][dL][dE][dL][dE][dK][dI][dR][dK]GG[dR][dR][dR][dQ][dR][dR][dK][dK][dR]G[dY]-NH2), the “Displacement of cellular CBP/P300 from BIO-MYBMIM beads by free peptide” value (CBP/P300) is reported as “displacement of cellular CBP/P300” and the “MYB complexes bound to promoters and enhancers eliminated” value (MV-411 cells) is reported as 2,690.
